# Assays:
# [1] = target: T1, influx peptide transporter (Homo sapiens, UniProt Q12864); test: [14C]cephalexin uptake by CHO-K1 transfectant Clone 9 (plasmid pPSJ179); assay type: cell-based
# T1 construct: about 120 kDa antigen of MAb PTC13G6
# T1 sequence (Q12864 23-832): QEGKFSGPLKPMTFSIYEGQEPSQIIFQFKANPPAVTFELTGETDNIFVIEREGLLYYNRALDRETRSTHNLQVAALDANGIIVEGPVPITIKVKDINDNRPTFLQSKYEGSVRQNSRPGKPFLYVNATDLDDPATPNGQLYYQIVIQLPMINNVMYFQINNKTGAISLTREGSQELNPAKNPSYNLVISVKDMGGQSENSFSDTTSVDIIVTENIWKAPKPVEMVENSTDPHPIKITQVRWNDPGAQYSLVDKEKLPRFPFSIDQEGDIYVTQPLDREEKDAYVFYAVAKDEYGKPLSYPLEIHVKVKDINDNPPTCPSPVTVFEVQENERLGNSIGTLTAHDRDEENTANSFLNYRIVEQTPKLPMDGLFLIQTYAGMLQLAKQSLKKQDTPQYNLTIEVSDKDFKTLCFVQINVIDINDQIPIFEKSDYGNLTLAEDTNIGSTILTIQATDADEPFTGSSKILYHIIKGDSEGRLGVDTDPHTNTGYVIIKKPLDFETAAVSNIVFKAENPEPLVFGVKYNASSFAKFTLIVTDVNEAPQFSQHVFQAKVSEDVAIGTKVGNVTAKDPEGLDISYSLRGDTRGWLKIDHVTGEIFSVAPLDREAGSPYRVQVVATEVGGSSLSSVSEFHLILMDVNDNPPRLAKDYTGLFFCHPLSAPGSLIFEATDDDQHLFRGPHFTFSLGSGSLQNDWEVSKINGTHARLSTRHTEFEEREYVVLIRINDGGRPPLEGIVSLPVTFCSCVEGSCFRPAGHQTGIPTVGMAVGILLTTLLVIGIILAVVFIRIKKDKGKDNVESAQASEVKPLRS
# Protocol: (§1) The samples were incubated at room temperature for 20 minutes.
# CHO-K1 cells = test: [14C]cephalexin uptake by control CHO-K1 cells (plasmid pRc/RSV); assay type: cell-based, Chinese hamster
# Protocol: as §1
compound,measurement,setting,value
CC(C)C[C@H](NC(=O)[C@@H](O)[C@H](N)Cc1ccccc1)C(=O)O [bestatin],[14C]-Cephalexin Uptake in presence of bestatin,[1]; 1 mM [14C]cephalexin + 15 mM bestatin,0.42 ± 0.08 nmol/mg total cell protein
same,effect on uptake of 1 mM cephalexin by the transfectant,[1]; 15 mM bestatin or 25 mM unlabelled cephalexin,inhibited
same,"drug uptake on coincubation, compared with control cells",[1]; coincubation with 1 mM [14C]cephalexin,decreased drug uptake in the representative transfectant (Clone 9) to the level of the control cells
same,[14C]-Cephalexin Uptake in presence of bestatin,"CHO-K1 cells; Control cells, 1 mM [14C]cephalexin + 15 mM bestatin",0.38 ± 0.08 nmol/mg total cell protein
same,effect on transport of 1 mM [14C]cephalexin by the control cells,"CHO-K1 cells; control cells, bestatin or cephalexin",not inhibited significantly
